Key:
[1] = tested on: CHIKV; conditions: cited from earlier work; for in vitro anti-CHIKV activity: by inhibiting RNA production and viral protein expression, ref Lani et al., 2016
[2] = MTT cell viability assay in Huh-7 cells; conditions: human
[3] = tested on: CHIKV-Fluc SGR (CHIKV subgenomic replicon) in Huh-7 cells; experiment: CHIKV-Fluc SGR replication assay (luciferase) in Huh-7 cells; conditions: for EC50 / CHIKV %replication 20 uM: Huh-7, CHIKV-Fluc SGR; for EC50: 24 h post treatment; for SI (CC50/EC50): Huh-7; for CHIKV %replication 20 uM: 24 h treatment; for inhibition at 20 µM: Huh-7, read-out: inhibition of CHIKV replication
[4] = Cell viability in RD cells; type: cell-based; conditions: human, RD rhabdomyosarcoma cells electroporated with CHIKV-Fluc RNA
Text: (§1) DMSO was used as non-treated control.

[5] = Cell viability in C2C12 cells; type: cell-based, murine; conditions: mouse, C2C12 myoblast cells electroporated with CHIKV-Fluc RNA
Text: as §1

[6] = tested on: CHIKV-Fluc SGR in RD cells; experiment: CHIKV-Fluc replication assay in RD cells; conditions: Chikungunya virus, read-out: inhibition of CHIKV replication
[7] = tested on: CHIKV-D-Luc SGR in Huh-7 cells; experiment: CHIKV-D-Luc SGR dual luciferase replicon assay in Huh-7 cells; conditions: Huh-7, non-toxic concentrations
[8] = tested on: CHIKV-Fluc SGR in C2C12 cells; experiment: CHIKV-Fluc replication assay in C2C12 cells; conditions: Chikungunya virus, C2C12, read-out: inhibition of CHIKV replication
[9] = tested on: Huh-7 cells; experiment: MTT cell viability assay in Huh-7 cells; conditions: 20 μM, Huh-7, MTT
[10] = decimal comma; ref ZINC15; cited from earlier work

Structure (SMILES): O=c1cc(-c2ccccc2)oc2cc(O)c(O)c(O)c12 [Baicalein]
- inhibition of virus entry versus replication ([1]; ref Oo et al., 2018): higher inhibition on virus entry than replication

Structure (SMILES): CC(c1ccccc1)N(Cc1nc(C(=O)NCCN2CCOCC2)co1)Cc1ccc(Cl)cc1Cl (centres unmarked) [Compound 1C5]
- CC50 at 24 h [2]: 27.5 µM
- EC50 ([3]; Chikungunya virus, Huh-7, 24 h): 19.8 µM
- SI (CC50/EC50) [3]: 1.4

Structure (SMILES): O=C(NCc1cccnc1)c1coc(CN(Cc2ccccc2)Cc2ccc3c(c2)OCO3)n1 [Compound 1C13]
- CC50 at 24 h [2]: 18.1 µM
- EC50 ([3]; Chikungunya virus, Huh-7, 24 h): 6.9 µM
- SI (CC50/EC50) [3]: 2.6

Structure (SMILES): CC(c1ccccc1)N(Cc1cccc(Cl)c1)Cc1nc(C(=O)NCCN2CCOCC2)co1 (centres unmarked) [Compound 2C5]
- CC50 at 24 h [2]: 27.4 µM
- EC50 ([3]; Chikungunya virus, Huh-7, 24 h): 27.3 µM
- SI (CC50/EC50) [3]: 1.0

Structure (SMILES): CC(c1ccccc1)N(Cc1nc(C(=O)NCCN2CCOCC2)co1)Cc1ccccc1F (centres unmarked) [Compound 3C5]
- CC50 at 24 h [2]: 40.5 µM
- EC50 ([3]; Chikungunya virus, Huh-7, 24 h): 26.9 µM
- SI (CC50/EC50) [3]: 1.5

Structure (SMILES): COc1cccc(CN(Cc2nc(C(=O)NCCN3CCOCC3)co2)C(C)c2ccccc2)c1 (centres unmarked) [Compound 4C5]
- CC50 at 24 h [2]: 45.2 µM
- EC50 ([3]; Chikungunya virus, Huh-7, 24 h): 29.3 µM
- SI (CC50/EC50) [3]: 1.5

Structure (SMILES): CC(c1ccccc1)N(Cc1cccc(F)c1)Cc1nc(C(=O)NCCN2CCOCC2)co1 (centres unmarked) [Compound C5]
- viability at 24 h, 100 µM [4]: 65%
- viability at 24 h, 100 µM [5]: 49%
- inhibition at 100 µM [6]: 100%
- Rluc levels (input translation and early replication) [7]: significantly decreased
- inhibition at 100 µM [8]: 70%
- % Toxicity (20μM) [9]: None
- CC50 at 24 h [2]: 38.9 µM
- viability at 24 h, 20 µM [2]: 94%
- CHIKV %replication 20 uM [3]: 53%
- EC50 ([3]; Chikungunya virus, Huh-7, 24 h): 12.7 µM
- inhibition at 20 µM ([3]; Chikungunya virus): 53%
- SI (CC50/EC50) [3]: 3.1

Structure (SMILES): O=C(NCc1cccnc1)c1coc(CN(Cc2ccoc2)Cc2cccc(C(F)(F)F)c2)n1 [Compound C13]
- viability at 24 h, 100 µM [4]: 70%
- viability at 24 h, 100 µM [5]: 51%
- inhibition at 100 µM [6]: 95%
- Rluc levels (input translation and early replication) [7]: significantly decreased
- inhibition at 100 µM [8]: 64%
- % Toxicity (20μM) [9]: None
- CC50 at 24 h [2]: 36.8 µM
- viability at 24 h, 20 µM [2]: 94%
- CHIKV %replication 20 uM [3]: 66%
- EC50 ([3]; Chikungunya virus, Huh-7, 24 h): 11.9 µM
- inhibition at 20 µM ([3]; Chikungunya virus): 66%
- SI (CC50/EC50) [3]: 3.2
- EC50 [3]: 11.6 µM
- logP ZINC15 [10]: 4,81

Structure (SMILES): O=c1c(O)c(-c2ccc(O)c(O)c2)oc2cc(O)ccc12 [fisetin]
- in vitro anti-CHIKV activity [1]: showed in vitro anti-CHIKV activity

Structure (SMILES): O=c1c(O)c(-c2ccc(O)c(O)c2)oc2cc(O)c(O)c(O)c12 [quercetagetin]
- in vitro anti-CHIKV activity [1]: showed in vitro anti-CHIKV activity

From paper PMC7615700, “Is the ADP ribose site of the Chikungunya virus NSP3 Macro domain a target for antiviral approaches?” (Acta tropica, 2020)
